Source: patent publication EP4678629A1, “IONIZABLE LIPID MOLECULE, PREPARATION METHOD THEREFOR AND USE THEREOF” (Maxirna (Shanghai) Pharmaceutical Co., Ltd., priority 2023, dated 2024)

Key:
[1] = In vitro transfection of cells with eGFP-mRNA lipid nanoparticle (LNP preparation), fluorescence imaging and flow cytometry; format: cell-based, mouse; conditions: mouse, dc2.4 cells, 200 ng of mRNA per well, after 24 hours; read-out: Cell viability, %
Description: (§1) This example used mouse bone marrow-derived dendritic cells DC2.4 (purchased from Millipore) as the validation cell line for a lipid nanoparticle transfection experiment. DC2.4 cells adhered to the wall for growth. All operational steps of cell culture strictly followed the prescribed procedures, using sterile reagents for aseptic operations under a sterile workbench. The main operational steps involved were as follows: • 1) Cell recovery: the preserved cell cryopreservation solution was removed from the -80 °C freezer and immediately placed in a 37 °C water bath for rapid and continuous shaking, allowing it to completely melt within one minute. Fresh culture medium was added to a 15 mL centrifuge tube in advance, and the cell fluid was added to the centrifuge tube in a biosafety cabinet. A centrifuge tube of the same mass was taken, placed symmetrically in the centrifuge, and centrifuged at low speed for 5 minutes at 1200 rpm. After centrifugation, the upper clear liquid was removed, and an appropriate amount of culture medium was slowly added along the tube wall. After the cells were gently blown and dispersed evenly, the cell suspension was drawn and added to the prepared culture bottle. The state and distribution of cells in the early stage of recovery were observed under a microscope. The culture bottle was incubated in a 5% CO2 incubator at 37 °C, and the recovery time was recorded. • 2) Cell passaging: Under a microscope, if the cell density in the field of view reached 80%-90%, cells could be passaged and cultured. Adherent cells required trypsin digestion. In order to avoid residual serum in the culture medium reducing trypsin activity, the original culture medium was removed, and DPBS solution was added to wash once. After suctioning out the DPBS solution, trypsin was added to degrade the protein at the intercellular junction, thereby separating the cells and facilitating further cultivation. The mixture was gently shaken well and placed into the incubator for digestion for 2-3 minutes. After digestion was complete, an appropriate amount of culture medium was immediately added to the original culture dish to terminate digestion. Finally, a pipette was used to carefully blow off the cells and blow them until they were evenly dispersed, and then the cells were inoculated and subcultured in a certain proportion according to experimental requirements.
(§2) Transfection of DC2.4 cells • 1) DC2.4 cell recovery: the frozen DC2.4 cells were taken out from the -80 °C refrigerator and immediately put into a 37 °C water bath for rapid thawing. After melting, they were added to the preheated culture medium, and centrifuged at 1200 rpm for 5 minutes. The supernatant was discarded, and an appropriate amount of DMEM medium containing 10% FBS was added to resuspend the recovered DC2.4 cells, which were placed in a 37 °C, 5% CO2 incubator for activation culture. • 2) According to experimental requirements, DC2.4 cells were transfected into 24 well plates one day in advance. By counting cells, the number and viability of cells were recorded, and a cell suspension with 2 × 10^5 cells per well were taken. Then, a certain volume of DMEM medium containing 10% FBS was added and mixed evenly, wherein 1 mL was added per well for subsequent transfection experiments. • 3) After 24 hours, the culture medium was gently aspirated with a pipette 30 minutes in advance, and each well was washed with 1 mL of DPBS and aspirated. […] The mixture was placed in a 37 °C, 5% CO2 incubator for activation cultivation. • 6) After 24 hours, cell viability (%), eGFP positivity rate (%), and mean fluorescence intensity data were obtained through cell fluorescence imaging and flow cytometry.

DC2.4 cells = test: as above; format: cell-based, mouse; conditions: eGFP positivity rate, DC2.4 cells, 200 ng of mRNA per well, after 24 hours
Description: as §1, §2

[2] = Encapsulation efficiency of the lipid nanoparticle (eGFP mRNA) by Ribogreen method; format: physicochemical; conditions: LNP encapsulating eGFP mRNA, ionizable lipid/DOPE/cholesterol/DMG-PEG2000 50/10/48.25/1.25 mol%, N/P 12
Description: (§3) The ionizable lipid compound and positive control 1 from Example I were dissolved in ethanol at a molar ratio of 50:10:48.25:1.25 with DOPE, cholesterol, and DMG-PEG2000 (all purchased from A.V.T (Shanghai) Pharmaceutical Co., Ltd.) to prepare an ethanol lipid solution. The enhanced green fluorescent protein (eGFP) mRNA was diluted in 20 mM citrate buffer (pH=6.1) to obtain an mRNA aqueous solution. By using a microfluidic device (Micro&Nano Biologics Co., Ltd., model: INano ™ L) mix ethanol lipid solution and mRNA aqueous solution in a volume ratio of 1:3 to prepare a lipid nanoparticle with a total lipid to mRNA N/P ratio of 12. The medium was replaced by ultrafiltration, ethanol was removed and volumed with DPBS. Finally, the lipid nanoparticle was filtered through a 0.2 µm sterile filter to obtain an LNP preparation encapsulating eGFP mRNA using ionizable lipid/DOPE/cholesterol/DMG-PEG2000 (50/10/48.25/1.25 mol%), with an mRNA content of 0.002 mg/ml-0.5 mg/mL.
(§4) Using Malvern Zetasizer Nano ZS (Malvern UK), the size and polydispersity index (PDI) of the lipid nanoparticle were determined by dynamic light scattering in 173° backscatter detection mode, and the encapsulation efficiency was measured by Ribogreen method.

[3] = Size and polydispersity index (PDI) of the lipid nanoparticle by dynamic light scattering; format: physicochemical; conditions: LNP encapsulating eGFP mRNA, ionizable lipid/DOPE/cholesterol/DMG-PEG2000 50/10/48.25/1.25 mol%, N/P 12; for Particle size: in nm (unit assumed)
Description: as §3, §4

Encapsulation rate, % [2] [%]	PDI [3]	Particle size [3]	Compound	viability at 24 h [1] [%]	Positive rate, % (DC2.4 cells) [%]
92.30	0.13	–	CCCCCC/C=C\COC(=O)CCCCCCCN(CCO)CCCN(CCCCCCCC(=O)OC/C=C\CCCCCC)CCCCCCCC(=O)OC/C=C\CCCCCC [Example 6, Di((Z)-non-2-en-1-yl)8,8'-((3-((2-hydroxyethyl)(8-(((Z)-non-2-en-1-yl)oxo)-8-oxooctyl)amino)propyl)azanediyl)dioctanoate]	80.5	85.29
86.64	0.09	–	CC/C=C\C/C=C\CCCOC(=O)CCCCCCCN(CCO)CCCN(CCCCCCCC(=O)OCCC/C=C\C/C=C\CC)CCCCCCCC(=O)OCCC/C=C\C/C=C\CC [Example 7, Di((4Z,7Z)-dec-4,7-dien-1-yl)8,8'-((3-((8-(((4Z,7Z)-dec-4,7-dien-1-yl)oxo)-8-oxooctyl)(2-hydroxyethyl)amino)propyl)azanediyl)dioctanoate]	76.9	75.68
80.59	0.21	–	CC/C=C\CCCCCOC(=O)CCCCCCCN(CCO)CCCN(CCCCCCCC(=O)OCCCCC/C=C\CC)CCCCCCCC(=O)OCCCCC/C=C\CC [Example 8, Di((Z)-non-6-en-1-yl)8,8'-((3-((2-hydroxyethyl)(8-(((Z)-non-6-en-1-yl)oxo)-8-oxooctyl)amino)propyl)azanediyl)dioctanoate]	63.2	82.12
78.69	0.22	–	CCCCCCCCCOC(=O)CCCCCCCN(CCO)CCCN(CCCCCCCC(=O)OCCCCCCCCC)CCCCCCCC(=O)OCCCCCCCCC [Example 9, Dinonyl 8,8'-((3-((2-hydroxyethyl)(8-(nonoxy)-8-oxooctyl)amino)propyl)azanediyl)dioctanoate]	55.6	83.84
89.02	0.14	90.73	CC/C=C\COC(=O)CCCCCCCN(CCO)CCCN(CCCCCCCC(=O)OC/C=C\CC)CCCCCCCC(=O)OC/C=C\CC [Example 10, Di((Z)-pent-2-en-1-yl)8,8'-((3-((2-hydroxyethyl)(8-oxo-8-(((Z)-pent-2-en-1-yl)oxo)octyl)amino)propyl)azanediyl)dioctanoate]	95	95.39
96.34	0.21	–	CCCCCCCCCCCCCOC(=O)CCCCCCCN(CCO)CCCN(CCCCCCCC(=O)OCCCCCCCCCCCCC)CCCCCCCC(=O)OCCCCCCCCCCCCC [Example 13, Ditridecyl 8,8'-((3-((2-hydroxyethyl)(8-oxo-8-(tridecyloxy)octyl)amino)propyl)azanediyl)dioctanoate]	91.3	93.23
97.23	0.21	98.45	CCCCCCCCCCCOC(=O)CCCCCCCCCN(CCO)CCCN(CCCCCCCCCC(=O)OCCCCCCCCCCC)CCCCCCCCCC(=O)OCCCCCCCCCCC [Example 14, Diundecyl 10,10'-((3-((2-hydroxyethyl)(10-oxo-10-(undecyloxy)decyl)amino)propyl)azanediyl)dicaprate]	97.9	95.61
90.28	0.20	–	CCCCCC/C=C\COC(=O)CCCCCCCCCN(CCO)CCCN(CCCCCCCCCC(=O)OC/C=C\CCCCCC)CCCCCCCCCC(=O)OC/C=C\CCCCCC [Example 15, Di((Z)-non-2-en-1-yl)10,10'-((3-((2-hydroxyethyl)(10-(((Z)-non-2-en-1-yl)oxo)-10-oxodecyl)amino)propyl)azanediyl)dicaprate]	84.4	91.39
86.73	0.18	99.65	CCCCCC/C=C\COC(=O)CCCN(CCO)CCCN(CCCC(=O)OC/C=C\CCCCCC)CCCC(=O)OC/C=C\CCCCCC [Example 16, Di((Z)-non-2-en-1-yl)4,4'-((3-((2-hydroxyethyl)(4-(((Z)-non-2-en-1-yl)oxo)-4-oxobutyl)amino)propyl)azanediyl)dibutanoate]	84.6	94.18
90.04	0.26	–	CCC/C=C\COC(=O)CCCCCCCN(CCO)CCCN(CCCCCCCC(=O)OC/C=C\CCC)CCCCCCCC(=O)OC/C=C\CCC [Example 17, Di((Z)-hexyl-2-en-1-yl)8,8'-((3-((8-(((Z)-hexyl-2-en-1-yl)oxo)-8-oxooctyl)(2-hydroxyethyl)amino)propyl)azanediyl)dioctanoate]	71.1	95.88
88.82	0.25	–	CCCCCCCCCCCOC(=O)CCCCCCCN(CCCO)CCCN(CCCCCCCC(=O)OCCCCCCCCCCC)CCCCCCCC(=O)OCCCCCCCCCCC [Example 18, Diundecyl 8,8'-((3-((3-hydroxypropyl)(8-oxo-8-(undecyloxy)octyl)amino)propyl)azanediyl)dioctanoate]	90.6	96.79
92.54	0.26	–	CCCCCC/C=C\COC(=O)CCCCCCCN(CCCO)CCCN(CCCCCCCC(=O)OC/C=C\CCCCCC)CCCCCCCC(=O)OC/C=C\CCCCCC [Example 19, Di((Z)-non-2-en-1-yl)8,8'-((3-((3-hydroxypropyl)(8-(((Z)-non-2-en-1-yl)oxo)-8-oxooctyl)amino)propyl)azanediyl)dioctanoate]	95.6	97.44
79.02	0.18	89.98	CCCCCCCCCCCOC(=O)CCCCCCCN(CCCCO)CCCN(CCCCCCCC(=O)OCCCCCCCCCCC)CCCCCCCC(=O)OCCCCCCCCCCC [Example 20, Diundecyl 8,8'-((3-((4-hydroxybutyl)(8-oxo-8-(undecyloxy)octyl)amino)propyl)azanediyl)dioctanoate]	83.8	93.27
78.46	0.11	–	CCCCCCCCCCCCCCCOC(=O)CCCCCCCN(CCO)CCCN(CCCCCCCC(=O)OCCCCCCCCCCCCCCC)CCCCCCCC(=O)OCCCCCCCCCCCCCCC [Example 22, Dipentadecyl 8,8'-((3-((2-hydroxyethyl)(8-oxo-8-(pentadecyloxy)octyl)amino)propyl)azanediyl)dioctanoate]	95.1	98.21
92.58	0.26	–	CCCCCCCCCCCOC(=O)CCCCCCCCCCCN(CCO)CCCN(CCCCCCCCCCCC(=O)OCCCCCCCCCCC)CCCCCCCCCCCC(=O)OCCCCCCCCCCC [Example 23, Diundecyl 12,12'-((3-((2-hydroxyethyl)(12-oxo-12-(undecyloxy)dodecyl)amino)propyl)azanediyl)didodecanoate]	87.5	92.1
